Values of other authors as cited in patent US8168224B2, “Sodium alginate microsphere vascular embolus containing water-soluble drug and preparation and application thereof” (Beijing Shengyiyao Science & Technology Development Co., …, priority 2007, dated 2012).

Legend:
primary liver cancer = details: 20 mg/d for 5 consecutive days
acute non-APL (ANPL) = details: versus Ara-C, Homoharringtonine, VCR and DNR
[1] = tested on: human ovary cancer strain 3AO; details: 3AO cells in vitro, compared with cisplatin (cDDP)
[2] = tested on: human liver cancer cell strain HepG2; details: combination with TNF
[3] = tested on: human ovary cancer cell strain SKOV3; details: As2O3 within normal clinical dosage range; radiation in routine graded dosages
[4] = tested on: rabbit Vx2 hepatic transplantation carcinoma; details: hepatic artery catheter perfusion; dose dependent
K562 and K562/ADM = details: dosage-time effect

Substance: Arsenic trioxide [As2O3]
- side effects (primary liver cancer; 4 courses, local pump administration): No explicit side effects
- PR (lesions shrank by 50% plus, no new lesions) (primary liver cancer; 17 patients unsuitable for surgery, after 4 therapeutic courses): 35.2%
- overall effectiveness rate (primary liver cancer; 17 patients, after 4 therapeutic courses): 41.1%
- cross drug resistance (acute non-APL (ANPL)): free from cross drug resistance with Ara-C, Homoharringtonine and VCR, but partly has cross drug resistance with DNR
- growth inhibition, apoptosis induction and S phase block compared with cDDP [1]: more effective in inhibiting growth, inducing apoptosis and blocking S phase of 3AO
- combination effect on inducing apoptosis [2]: synergistic
- growth of HUVECs (HUVECs): inhibit growth of HUVECs
- radiation enhancement [3]: enhance effect of the radiation therapy
- angiogenesis (angiogenesis in CAM): inhibit angiogenesis
- inhibition of rabbit Vx2 hepatic transplantation carcinoma [4]: significantly effective in treating tumors
- expression of Bcl-2 protein (K562 and K562/ADM): inhibit expression of Bcl-2 protein of K562 and K562/ADM
